{"source": "patent US11266644B2", "about": "“Pharmaceutical composition for preventing and treating diabetic nephropaphy including adenosine derivative” (FUTURE MEDICINE CO., LTD., priority 2017, dated 2022)", "key": {"[1]": {"test_system": "db/db diabetic mice", "test": "Type 2 diabetic renal damage, db/db mice, dose-dependency (Experimental Example 1)", "type": "in vivo", "settings": "db/db mice, 1.5, 5 and 10 mg/kg", "description": "The following animal experiments were performed to examine the inhibitory effect of the adenosine derivatives of the present invention on renal damage in the type 2 diabetes model.\nAfter 12 weeks of the administration, kidneys of the solvent control group and the test substance administration group were extracted to observe the histological changes of the glomeruli and the levels of urinary albumin and LPO (lipid peroxide) or the amount of mRNA expression for nephrin, NGAL, TGF-β, collagen IV, fibronectin, MCP-1 and ICAM-1 was set as an index for renal damage and the protective effect for kidney was measured. Db/m mice in which diabetes were not induced, were added as a control group and only a solvent was administered to observe and measure the above items.\nOf these indices, urinary albumin level means proteinuria, nephrin reduction means podocyte injury, NGAL increase means tubular injury, TGF-β increase means fibrosis, inflammatory cytokine (MCP-1, ICAM-1) increase means Inflammatory response and LPO values indicate oxidative stress.\n(§1) The morphological analysis of glomeruli was performed by PAS (Periodic Acid Schiff) staining of kidney tissues followed by random selection of each 50, quantification by an image analyzer and statistics, and urinary albumin and LPO were analyzed by electrophoresis and ELISA (Enzyme-Linked ImmunoSorbent Assay) and mRNA expression was analyzed by real time PCR.\nIn FIG. 2 and FIG. 3, db/m represents normal mice, db/db represents diabetic mice administered with only solvent (0.25% CMC) and db/db+LJ2698 (1.5 mg/kg), db/db+LJ2698 (5 mg/kg) and db/db+LJ2698 (10 mg/kg) represent diabetic mice in which the compound of Chemical Formula B is administered at 1.5, 5 and 10 mg/kg, respectively, for 12 weeks daily."}, "[2]": {"test_system": "db/db diabetic mice", "test": "Type 2 diabetic renal damage, db/db mice, comparison with Losartan (Experimental Example 2)", "type": "in vivo", "settings": "oral, daily 12 weeks, Formula B 10 mg/kg; for glomerular filtration rate decrease / glomerular hypertrophy / proteinuria / tubular injury: Losartan 1.5 mg/kg (FIG. 4-6); for renal fibrosis: Losartan 1.5 mg/kg (FIG. 7, 8); for inflammation response: Losartan 1.5 mg/kg (FIG. 9, 10); for oxidative stress: Losartan 1.5 mg/kg (FIG. 11, 12); for lipid accumulation: Losartan 1.5 mg/kg (FIG. 13, 14)", "description": "In order to compare the therapeutic efficacy between the adenosine derivative of the present invention and Losartan, which is used for alleviating the symptoms of diabetic kidney disease, the following animal experiments were performed.\nThe compound of Chemical Formula B and rosartan were oral administered at a dose of 10 mg/kg and 1.5 mg/kg to 8-week-old normal db/m mice in which diabetes were not induced and 8-week-old db/db diaetic mice in which diabetes were induced, respectively for 12 weeks daily. The kidneys of the solvent control group and the drug administration group were extracted to observe the histological changes of the glomeruli and the changes in the indicators for renal damage such as proteinuria, glomerular filtration rate reduction, tubular injury, glomerular hypertrophy, renal fibrosis, inflammatory response, oxidative stress and lipid accumulation were compared.\nas §1, with “analysis of kidney including glomeruli was” for “analysis of glomeruli was”, “by PAS staining of” for “by PAS (Periodic Acid Schiff) staining of”\nGlomerular filtration rate was calculated by measuring blood and urine creatinine using the Jaffe method and changes in kidney protein were measured by western blot, ELISA and immunohistochemistry.\nIn FIG. 4 to FIG. 14, db/m and db/db represent the mice to which the solvent (0.25% CMC) used in administering the compound of Chemical Formula B was administered, respectively, and db/m+LJ2698 and db/db+LJ2698 represent normal mice and diabetic mice to which the compound of Chemical Formula B is administered for 12 weeks, respectively. db/db+Losartan represents diabetic mice to which Losartan was administered for 12 weeks."}, "[3]": {"test_system": "mice in which type 1 diabetes was induced (STZ)", "test": "Type 1 diabetic renal damage, streptozotocin-induced diabetic mice (Experimental Example 3)", "type": "in vivo", "settings": "daily 12 weeks, Formula B 10 mg/kg", "description": "The following animal experiments were performed to examine the inhibitory effect on the kidney injury by administering the adenosine derivative of the present invention to an animal model of type 1 diabetes.\nAfter streptozotocin (STZ) was administered to normal mice for 5 days to induce type 1 diabetes, the mice have been classified into, a group in which 10 mg/kg compound of Chemical Formula B was administered daily, a group in which 1.5 mg/kg of LC158809, a type of ARB, was administered daily, and a group in which 10 mg/kg compound of Chemical Formula B and 1.5 mg/kg of LC158809 were co-administered daily, then all groups were given total of 12 weeks administration.\nKidney function and histologic changes of the kidney and the like were examined for normal mice to which streptozotocin was not administered, diabetic mice to which the only solvent was administered after 12 weeks of streptozotocin administration and diabetic mice to which test substance was administered after 12 weeks of streptozotocin administration.\nFIG. 15 to FIG. 17 are graphs showing the results of measuring the levels of urinary albumin, nephrin and 8-isoprostan according to the above-mentioned experiment. Urine albumin, nephrin and 8-isoprostanone levels were measured as indicators of proteinuria, glomerular podocyte damage and oxidative stress, respectively.\nIn FIG. 15 to FIG. 19, Control and STZ represent normal mice and mice in which type 1 diabetes was induced, and STZ+ARB, STZ+LJ2698 and STZ+ARB+LJ2698 represent diabetic mice in which […] and the compound of Chemical Formula B+LC158809 (co-administration) were administered for 12 weeks, respectively."}, "[4]": {"test_system": "mice-derived glomerular podocyte", "test": "Inflammation and fibrosis response in cultured glomerular podocytes (Experimental Example 4)", "type": "cell-based", "settings": "induced with high glucose, angiotensin II and free fatty acids (FIG. 20)", "description": "(§2) In order to examine the anti-inflammatory and anti-fibrotic effects of the adenosine derivatives of the present invention on cultured cells, the following in vitro experiments were performed."}, "[5]": {"test_system": "mice-derived tubular epithelial cells", "test": "Inflammation and fibrosis response in cultured tubular epithelial cells (Experimental Example 4)", "type": "cell-based", "settings": "induced with high glucose, angiotensin II and free fatty acids (FIG. 20)", "description": "as §2"}, "[6]": {"settings": "LC158809 1.5 mg/kg (FIG. 18, 19)"}}, "data": [{"molecule": "O[C@@H]1[C@H](O)CS[C@H]1n1cnc2c(NCc3cccc(Cl)c3)nc(Cl)nc21", "note": "[compound of Chemical Formula B, (2R,3R,4S)-2-(2-chloro-6-(3-chlorobenzylamino)-9H-purin-9-yl)tetrahydrothiophene-3,4-diol]", "values": [{"measurement": "vasodilation (glomerular mesangium)", "setting": "[1]; 12 weeks (FIG. 1, 2)", "result": "significantly inhibited"}, {"measurement": "urinary albumin levels (proteinuria)", "setting": "[1]; 12 weeks (FIG. 3)", "result": "inhibited dependently on dose"}, {"measurement": "glomerular hypertrophy", "setting": "[1]; 12 weeks, PAS staining (FIG. 1, 2)", "result": "significantly inhibited"}, {"measurement": "NGAL (tubular injury indicator)", "setting": "[1]; 12 weeks, mRNA (FIG. 3)", "result": "inhibited dependently on dose"}, {"measurement": "TGF-β (fibrosis indicator)", "setting": "[1]; 12 weeks, mRNA (FIG. 3)", "result": "inhibited dependently on dose"}, {"measurement": "collagen IV", "setting": "[1]; 12 weeks, mRNA (FIG. 3)", "result": "inhibited dependently on dose"}, {"measurement": "nephrin (podocyte injury indicator)", "setting": "[1]; 12 weeks, mRNA (FIG. 3)", "result": "inhibited dependently on dose"}, {"measurement": "glomerular filtration rate decrease", "setting": "[2]", "result": "inhibited"}, {"measurement": "glomerular hypertrophy", "setting": "[2]", "result": "inhibited"}, {"measurement": "proteinuria", "setting": "[2]", "result": "inhibited"}, {"measurement": "tubular injury", "setting": "[2]", "result": "inhibited"}, {"measurement": "renal fibrosis", "setting": "[2]", "result": "inhibited to a similar level"}, {"measurement": "inflammation response", "setting": "[2]", "result": "inhibited to a similar level"}, {"measurement": "oxidative stress", "setting": "[2]", "result": "inhibited to a similar level"}, {"measurement": "lipid accumulation", "setting": "[2]", "result": "inhibited to a similar level"}, {"measurement": "urinary nephrin (glomerular podocyte damage)", "setting": "[3]; LC158809 1.5 mg/kg (FIG. 16)", "result": "significantly reduced"}, {"measurement": "fibrosis of the kidney", "setting": "[3]; [6]", "result": "significantly reduced"}, {"measurement": "inflammation of the kidney", "setting": "[3]; [6]", "result": "significantly reduced"}, {"measurement": "urinary albumin (proteinuria)", "setting": "[3]; LC158809 1.5 mg/kg, alone or co-administered (FIG. 15)", "result": "significantly reduced"}, {"measurement": "urinary 8-isoprostanone (oxidative stress)", "setting": "[3]; LC158809 1.5 mg/kg, alone or co-administered (FIG. 17)", "result": "significantly reduced"}, {"measurement": "anti-fibrosis effect (collagen IV)", "setting": "[4]", "result": "anti-fibrosis"}, {"measurement": "anti-inflammatory effect (Nephrin, MCP-1)", "setting": "[4]", "result": "anti-inflammatory effect"}, {"measurement": "antioxidant effect (NOX4)", "setting": "[4]", "result": "antioxidant"}, {"measurement": "anti-fibrosis effect (collagen IV)", "setting": "[5]", "result": "anti-fibrosis"}, {"measurement": "anti-inflammatory effect (Nephrin, MCP-1)", "setting": "[5]", "result": "anti-inflammatory effect"}, {"measurement": "antioxidant effect (NOX4)", "setting": "[5]", "result": "antioxidant"}]}, {"molecule": "CCCCc1nc(Cl)c(CO)n1Cc1ccc(-c2ccccc2-c2nn[nH]n2)cc1", "note": "[Losartan, (2-butyl-4-chloro-1-{[2′-(1H-tetrazol-5-yl)biphenyl-4-yl]methyl}-1H-imidazol-5-yl}methanol, reference compound]", "values": [{"measurement": "glomerular filtration rate decrease", "setting": "[2]", "result": "similar"}, {"measurement": "glomerular hypertrophy", "setting": "[2]", "result": "similar"}, {"measurement": "proteinuria", "setting": "[2]", "result": "similar"}, {"measurement": "tubular injury", "setting": "[2]", "result": "similar"}, {"measurement": "renal fibrosis", "setting": "[2]", "result": "inhibited to a similar level"}, {"measurement": "inflammation response", "setting": "[2]", "result": "inhibited to a similar level"}, {"measurement": "oxidative stress", "setting": "[2]", "result": "inhibited to a similar level"}, {"measurement": "lipid accumulation", "setting": "[2]", "result": "inhibited to a similar level"}]}]}
